Values of other authors as cited in patent US10919926B2, “Compound or salt thereof, natural killer T cell activator, and pharmaceutical composition” (KEIO UNIVERSITY, priority 2016, dated 2021).

Tested on: RBL-CD1d cells and NKT hybridoma 2E10 cells
Settings: previously known

In the case of `CCCCCCCCCCCCCCCCCCCCCCCCCC(=O)N[C@@H](CO[C@H]1O[C@H](CO)[C@H](O)[C@H](O)[C@H]1O)[C@H](O)[C@H](O)CCCCCCCCCCCCCC` [α-GalCer, α-galactosylceramide], the “cytokine-inducing capacity compared with β-GalCer and C19” value is given as “higher than β-GalCer and C19”.
